Where “and” joins values, the source holds several entries; their conditions need not be identical. Equal values may be shown once.
Columns and labels:
[1] = xn = mol fraction of the nth substance listed

CC(C)(C)O
Details	viscosity
293.15 K, 101 kPa	3.925 mPa·s
298 K, 101 kPa	3.41 mPa·s and 4.324 mPa·s
298.15 K, 100 kPa	4.396 mPa·s
303 K, 101.33 kPa	3.268 mPa·s
303.15 K, 101.3 kPa	3.318 mPa·s and 3.318 mPa·s
303.2 K, 101.33 kPa	3.333 mPa·s and 3.333 mPa·s
305 K, 101 kPa	3.076 mPa·s
308 K, 101 kPa	2.333 mPa·s
308.15 K, 101.3 kPa	2.55 mPa·s
308.15 K, 101.33 kPa	2.644 mPa·s and 2.595 mPa·s and 2.546 mPa·s
313 K, 101 kPa	2.102 mPa·s
313.15 K, 101.3 kPa	2.047 mPa·s
318 K, 101 kPa	1.702 mPa·s
318.15 K, 101.33 kPa	1.889 mPa·s and 1.726 mPa·s
323 K, 101 kPa	1.404 mPa·s
323.15 K, 100 kPa	1.418 mPa·s
323.15 K, 101 kPa	1.421 mPa·s and 1.423 mPa·s and 1.415 mPa·s

CC1OC(C)OC(C)O1 (centres undefined)
Details	viscosity [mPa·s]
293.15 K, 101.3 kPa	1.224

CCCBr
101 kPa
Details	viscosity [mPa·s]
293.15 K	0.531
303.15 K	0.486
308.15 K	0.436
313.15 K	0.448
323.15 K	0.415

CCCC
viscosity [mPa·s]
Details	293.15 K	313.15 K
101 kPa	0.17	0.143
101.33 kPa	0.17	0.143

CCCCCCCC(=O)[O-].c1c[nH+]c[nH]1
101.3 kPa
Details	viscosity [mPa·s]
293.15 K	88.48
298.15 K	71.27
303.15 K	56.48
308.15 K	45.3
313.15 K	36.92
318.15 K	30.56
323.15 K	25.33

CCNCC
Details	viscosity
293.15 K, 100 kPa	0.32 mPa·s and 0.32 mPa·s
293.15 K, 101.33 kPa	0.32 mPa·s
298.15 K, 101 kPa	0.29 mPa·s and 0.265 mPa·s
303.15 K, 101.33 kPa	0.288 mPa·s
308.15 K, 101 kPa	0.2466 mPa·s
308.15 K, 101.33 kPa	0.274 mPa·s
313.15 K, 100 kPa	0.26 mPa·s and 0.26 mPa·s
318.15 K, 100 kPa	0.248 mPa·s
323.15 K, 100 kPa	0.237 mPa·s and 0.237 mPa·s

CN(CCO)CCO
viscosity
Details	293.15 K	298.15 K	313.15 K	323.15 K
101 kPa	101.2 mPa·s	74.81 mPa·s	37.9 mPa·s and 34.04 mPa·s	24.7 mPa·s and 21.53 mPa·s
101.33 kPa	–	77.19 mPa·s and 77.19 mPa·s	–	–

COCCOCCOCCO
viscosity
Details	293.15 K	298.15 K	303.15 K	308.15 K	313.15 K	318.15 K	323.15 K
101 kPa	7.211 mPa·s	6.287 mPa·s and 6.254 mPa·s	5.412 mPa·s	4.535 mPa·s	–	3.726 mPa·s	–
101.33 kPa	–	–	–	4.642 mPa·s and 5.055 mPa·s	4.074 mPa·s and 4.08 mPa·s	–	3.202 mPa·s and 3.2 mPa·s

COP(=O)([O-])OC.Cn1cc[n+](C)c1
viscosity [mPa·s]
Details	293.15 K	298.15 K	303.15 K	308.15 K	313.15 K	318.15 K	323.15 K
101 kPa	415.9	290.8	210.1	155.6	119.2	92.77	74.24
101.33 kPa	–	–	–	139.5	–	–	–

C[NH+](CCO)CCO.O=C[O-]
101 kPa
Details	viscosity [mPa·s]
293.15 K	708.5
298.15 K	491.4
303.15 K	350
313.15 K	190
323.15 K	124.5

NCCN
viscosity
Details	293.15 K	298.15 K	303.15 K	308.15 K	313.15 K	318.15 K	323.15 K
100 kPa	–	–	–	–	0.7611 mPa·s	–	–
101 kPa	1.52 mPa·s and 1.62 mPa·s and 1.54 mPa·s	1.37 mPa·s and 1.39 mPa·s and 1.26 mPa·s	1.16 mPa·s and 1.18 mPa·s and 1.299 mPa·s (2×)	–	–	–	0.737 mPa·s and 0.9042 mPa·s and 0.904 mPa·s
101.3 kPa	–	–	1.29 mPa·s	1.167 mPa·s	1.06 mPa·s	0.967 mPa·s	–
101.33 kPa	–	–	1.299 mPa·s	1.191 mPa·s	1.08 mPa·s	0.986 mPa·s	0.904 mPa·s

Nc1ccccc1
Details	viscosity
293.15 K, 100 kPa	4.407 mPa·s and 4.41 mPa·s
293.15 K, 101 kPa	4.28 mPa·s and 4.28 mPa·s
293.15 K, 101.33 kPa	4.404 mPa·s
293.35 K, 101 kPa	4.26 mPa·s
298.15 K, 100 kPa	3.737 mPa·s
298.15 K, 101.3 kPa	3.61 mPa·s
298.15 K, 101.32 kPa	3.773 mPa·s
298.15 K, 101.33 kPa	3.62 mPa·s
302.4 K, 101 kPa	5.537 mPa·s
302.75 K, 101 kPa	3.15 mPa·s
303 K, 101 kPa	3.097 mPa·s
303 K, 101.3 kPa	3.111 mPa·s
303 K, 101.33 kPa	3.036 mPa·s and 3.035 mPa·s
303.15 K, 100 kPa	3.197 mPa·s and 3.029 mPa·s
303.15 K, 101.33 kPa	3.078 mPa·s
308 K, 101 kPa	2.663 mPa·s
308 K, 101.3 kPa	2.691 mPa·s
308.1 K, 101 kPa	2.79 mPa·s
308.15 K, 100 kPa	2.78 mPa·s
308.15 K, 101 kPa	2.857 mPa·s and 2.639 mPa·s
308.15 K, 101.3 kPa	2.7 mPa·s
308.15 K, 101.33 kPa	2.615 mPa·s
313 K, 101 kPa	2.329 mPa·s
313 K, 101.3 kPa	2.338 mPa·s
313.15 K, 100 kPa	2.445 mPa·s and 2.305 mPa·s and 2.49 mPa·s
313.15 K, 101.33 kPa	2.327 mPa·s
318 K, 101 kPa	2.057 mPa·s
318 K, 101.3 kPa	2.054 mPa·s
318.15 K, 100 kPa	2.159 mPa·s
318.15 K, 101 kPa	2.157 mPa·s and 2.047 mPa·s and 2.113 mPa·s
323.15 K, 100 kPa	1.927 mPa·s
323.15 K, 101 kPa	1.806 mPa·s
323.15 K, 101.3 kPa	1.87 mPa·s
323.15 K, 101.33 kPa	2.01 mPa·s

CCCBr + c1ccccc1
[1], 308.15 K, 101 kPa
Details	viscosity [mPa·s]
x2 = 0.1021	0.4369
x2 = 0.2992	0.4373
x2 = 0.3987	0.4413
x2 = 0.5041	0.4461
x2 = 0.6028	0.4525
x2 = 0.7033	0.4619
x2 = 0.8414	0.478
x2 = 0.8979	0.4898

CCCC(=O)OC + c1ccccc1
viscosity [mPa·s], [1], 101 kPa
Details	x2 = 0.1316	x2 = 0.1994	x2 = 0.2999	x2 = 0.3974	x2 = 0.5001	x2 = 0.6023	x2 = 0.7044	x2 = 0.7999	x2 = 0.8939
298.15 K	0.536	0.534	0.535	0.536	0.54	0.544	0.551	0.561	0.575
313.15 K	0.451	0.45	0.45	0.451	0.453	0.456	0.46	0.466	0.476

ClCc1ccccc1 + c1ccccc1
viscosity [mPa·s], [1], 101 kPa
Details	x2 = 0.1988	x2 = 0.3583	x2 = 0.489	x2 = 0.5982	x2 = 0.6907	x2 = 0.7701	x2 = 0.839	x2 = 0.8993	x2 = 0.9526
298.15 K	0.9856	0.8952	0.8251	0.7742	0.7152	0.6823	0.6598	0.6485	0.6042
303.15 K	0.9782	0.8724	0.8024	0.7153	0.6942	0.6324	0.6248	0.5923	0.5634
308.15 K	0.9265	0.8258	0.7865	0.7026	0.6294	0.6058	0.5861	0.5592	0.5389
313.15 K	0.9357	0.8562	0.7548	0.6994	0.6241	0.5826	0.5742	0.5486	0.5095

Nc1ccccc1 + c1ccccc1
[1]
Details	viscosity [mPa·s]
298.15 K, 101 kPa, x1 = 0.1039	0.71
298.15 K, 101 kPa, x1 = 0.2282	0.83
298.15 K, 101 kPa, x1 = 0.3729	1.1
298.15 K, 101 kPa, x1 = 0.4341	1.211
298.15 K, 101 kPa, x1 = 0.5562	1.483
298.15 K, 101 kPa, x1 = 0.6562	1.803
298.15 K, 101 kPa, x1 = 0.7656	2.217
298.15 K, 101 kPa, x1 = 0.8661	2.767
298.15 K, 101 kPa, x1 = 0.9088	3.029
298.15 K, 101 kPa, x2 = 0.01	3.64
298.15 K, 101 kPa, x2 = 0.026	3.555
298.15 K, 101 kPa, x2 = 0.12	2.895
298.15 K, 101 kPa, x2 = 0.205	2.461
298.15 K, 101 kPa, x2 = 0.304	2.022
298.15 K, 101 kPa, x2 = 0.39	1.67
298.15 K, 101 kPa, x2 = 0.468	1.448
298.15 K, 101 kPa, x2 = 0.52	1.307
298.15 K, 101 kPa, x2 = 0.626	1.1
298.15 K, 101 kPa, x2 = 0.662	1.056
298.15 K, 101 kPa, x2 = 0.794	0.861
298.15 K, 101 kPa, x2 = 0.896	0.714
298.15 K, 101.33 kPa, x1 = 0.2	0.78
298.15 K, 101.33 kPa, x1 = 0.5	1.277
298.15 K, 101.33 kPa, x2 = 0.25	2.458
298.15 K, 101.33 kPa, x2 = 0.4	1.764
298.15 K, 101.33 kPa, x2 = 0.5	1.427
303.15 K, 101 kPa, x1 = 0.1039	0.657
303.15 K, 101 kPa, x1 = 0.2282	0.781
303.15 K, 101 kPa, x1 = 0.3729	0.965
303.15 K, 101 kPa, x1 = 0.4341	1.093
303.15 K, 101 kPa, x1 = 0.5562	1.371
303.15 K, 101 kPa, x1 = 0.6562	1.648
303.15 K, 101 kPa, x1 = 0.7656	1.991
303.15 K, 101 kPa, x1 = 0.8661	2.495
303.15 K, 101 kPa, x1 = 0.9088	2.745
308.15 K, 101 kPa, x1 = 0.1019	0.5981
308.15 K, 101 kPa, x1 = 0.1039	0.589
308.15 K, 101 kPa, x1 = 0.1492	0.6532
308.15 K, 101 kPa, x1 = 0.2282	0.736
308.15 K, 101 kPa, x1 = 0.2326	0.728
308.15 K, 101 kPa, x1 = 0.267	0.7545
308.15 K, 101 kPa, x1 = 0.3462	0.8563
308.15 K, 101 kPa, x1 = 0.3729	0.91
308.15 K, 101 kPa, x1 = 0.4341	1.012
308.15 K, 101 kPa, x1 = 0.4911	1.115
308.15 K, 101 kPa, x1 = 0.5562	1.224
308.15 K, 101 kPa, x1 = 0.6312	1.492
308.15 K, 101 kPa, x1 = 0.6562	1.476
308.15 K, 101 kPa, x1 = 0.68	1.59
308.15 K, 101 kPa, x1 = 0.7615	1.835
308.15 K, 101 kPa, x1 = 0.7656	1.79
308.15 K, 101 kPa, x1 = 0.8499	2.128
308.15 K, 101 kPa, x1 = 0.8661	2.179
308.15 K, 101 kPa, x1 = 0.9088	2.443
313.15 K, 101 kPa, x1 = 0.1039	0.562
313.15 K, 101 kPa, x1 = 0.2282	0.689
313.15 K, 101 kPa, x1 = 0.3729	0.842
313.15 K, 101 kPa, x1 = 0.4341	0.928
313.15 K, 101 kPa, x1 = 0.5562	1.124
313.15 K, 101 kPa, x1 = 0.6562	1.337
313.15 K, 101 kPa, x1 = 0.7656	1.587
313.15 K, 101 kPa, x1 = 0.8661	1.93
313.15 K, 101 kPa, x1 = 0.9088	2.103
323.15 K, 101.33 kPa, x1 = 0.2	0.541
323.15 K, 101.33 kPa, x1 = 0.5	0.792

From the CheMixHub viscosity set
